# Data taken from patent publication US11208443B2, “NAF-1 derived peptides and uses thereof” (YISSUM RESEARCH DEVELOPMENT COMPANY OF THE HEBREW …, priority 2017, dated 2021).
# Like-named read-outs stand apart in the source and are kept apart here. Non-standard residues stand in square brackets, D forms with d. Residues, ends and D or L forms follow the SMILES beside them. No end group written: not given here. PEG8 = NCCOCCOCCOCCOCCOCCOCCOCCOCCC(=O)O
# Key:
# chymotrypsin = experiment: Stability against protease cleavage, HPLC; assay type: in vitro ADME
# Procedure: Stability of the D-PEP, and 3D-PEP, analogs, and of PEG-N-3D-PEP and PEG-C-3D-PEP conjugates against protease cleavage (chymotrypsin and trypsin) was tested and compared to stability of the native peptide having SEQ ID NO: 1. To peptides' stocks of 430 μl in concentration of 450 μM were added 0.001 mg/ml protease (Trypsin or Chymotrypsin) and incubated in room temperature (22° C.). Samples of 40 μl were taken before adding the protease and after every 15 min in the first hour, and after 2 […] and 24 h. To stop the proteolysis samples were added 7 μl of 2% TFA in TDW. The samples were added 60 μl TDW and were analyzed using analytical HPLC.
# [1] = Cell viability of malignant cells (Examples 1, 6, 10); assay type: cell-based, human
# Description: (§1) However, substitution of several amino acids to Ala drastically diminished the toxicity of these analogs.
# MCF-10A cells [2] = test system: MCF-10A cells
# Procedure: The ability of the peptide having the sequence SEQ ID NO: 1 to penetrate into the cells and its effect on cells' viability was tested as following. Green fluorescein was conjugated to the peptide having SEQ ID NO: 1 (the labeled peptide is referred as PEP-FL). Then, the fluorescent peptide was incubated with normal, non-tumor epithelial cell line (MCF-10A) and malignant (MDA-MB-231) breast epithelial cells. The mitochondria of the cells were labeled red with RPA and the cells' nuclei were labeled with Hoechst 33342 (blue dye).
# MDA-MB-231 cells [3] = experiment: Cell viability of malignant cells (Examples 1, 6, 10); assay type: cell-based, human
# Description: as §1
# MDA-MB-231 cells [4] = experiment: Penetration of fluorescein-labeled peptide into malignant cells; assay type: cell-based, human; conditions: FIG. 2, FIG. 6A
# Procedure: (§2) To elucidate the site of action of the peptide having SEQ ID NO: 1, the peptide was labeled as described in Example 1 and incubated with normal and malignant cells (MCF-10A and MDA-MB-231 cells, respectively). […] Without being bound to any specific theory it was estimates that the peptide affects or disrupts the structure of the mitochondrial and nuclear membrane.
# (§3) In addition to D-PEP peptide (SEQ ID NO:3), in which all amino acids of SEQ ID NO: 1 were substituted to D-amino acids, a peptide comprising only 3 D-amino acids was produced and has the sequence FLGVLALLGyLAVRPfLPKkKQQK (SEQ ID NO: 2, referred as 3D-PEP). This peptide, as well as D-PEP, both marked with Fluorescein, were tested for their ability to penetrate into non-tumor MCF-10A and malignant MDA-MB-231 and for their toxicity, as described in Example 3. Briefly, cells were incubated with 10 μM of each sample of the peptides for 3 h and then intensively washed. Cell fluorescence was observed by semi-confocal microscope. For cell viability measurement, cells were incubated with 10 μM or 5 μM of each one of the peptides for 5 days and then cell viability was assayed using Alamar blue assay.
# MCF-10A cells [5] = experiment: Penetration of fluorescein-labeled peptide into non-malignant cells; assay type: cell-based; conditions: FIG. 2
# Procedure: as §2, §3
# MDA-MB-231 cells [6] = experiment: Effect of labeled peptide on mitochondria and nuclei, confocal imaging; assay type: cell-based, human
# Procedure: as §2
# MCF-10A cells [7] = experiment: Effect of labeled peptide on nuclei, confocal imaging; assay type: cell-based; conditions: FIG. 6C
# Procedure: as §2
compound,measurement,setting,value
"CC(C)C[C@H](NC(=O)[C@H](C)NC(=O)[C@H](CC(C)C)NC(=O)[C@@H](NC(=O)CNC(=O)[C@H](CC(C)C)NC(=O)[C@@H](N)Cc1ccccc1)C(C)C)C(=O)N[C@@H](CC(C)C)C(=O)NCC(=O)N[C@H](Cc1ccc(O)cc1)C(=O)N[C@@H](CC(C)C)C(=O)N[C@@H](C)C(=O)N[C@H](C(=O)N[C@@H](CCCNC(=N)N)C(=O)N1CCC[C@H]1C(=O)N[C@H](Cc1ccccc1)C(=O)N[C@@H](CC(C)C)C(=O)N1CCC[C@H]1C(=O)N[C@@H](CCCCN)C(=O)N[C@H](CCCCN)C(=O)N[C@@H](CCCCN)C(=O)N[C@@H](CCC(N)=O)C(=O)N[C@@H](CCC(N)=O)C(=O)N[C@@H](CCCCN)C(=O)O)C(C)C [3D-PEP, FLGVLALLGyLAVRPfLPKkKQQK] (H-FLGVLALLG[dY]LAVRP[dF]LPK[dK]KQQK-OH; N-terminus and C-terminus assumed)",half life against chymotrypsin compared to native peptide,chymotrypsin,much longer half life
CC(C)C[C@H](NC(=O)[C@H](C)NC(=O)[C@H](CC(C)C)NC(=O)[C@@H](NC(=O)CNC(=O)[C@H](CC(C)C)NC(=O)[C@@H](N)Cc1ccccc1)C(C)C)C(=O)N[C@@H](CC(C)C)C(=O)NCC(=O)N[C@H](Cc1ccc(O)cc1)C(=O)N[C@@H](CC(C)C)C(=O)N[C@@H](C)C(=O)N[C@H](C(=O)N[C@@H](CCCNC(=N)N)C(=O)N1CCC[C@H]1C(=O)N[C@H](Cc1ccccc1)C(=O)N[C@@H](CC(C)C)C(=O)N1CCC[C@H]1C(=O)N[C@@H](CCCCN)C(=O)N[C@H](CCCCN)C(=O)N[C@@H](CCCCN)C(=O)N[C@@H](CCC(N)=O)C(=O)N[C@@H](CCC(N)=O)C(=O)N[C@@H](CCCCN)C(=O)NCCOCCOCCOCCOCCOCCOCCOCCOCCC(N)=O)C(C)C [PEG-C-3D-PEP] (H-FLGVLALLG[dY]LAVRP[dF]LPK[dK]KQQK[PEG8]-NH2; N-terminus assumed),cytotoxicity,[1],~70%
same,effect on viability of normal cells,MCF-10A cells [2],much weaker effect
CC(C)C[C@H](NC(=O)[C@H](C)NC(=O)[C@H](CC(C)C)NC(=O)[C@@H](NC(=O)CNC(=O)[C@H](CC(C)C)NC(=O)[C@H](Cc1ccccc1)NC(=O)CCOCCOCCOCCOCCOCCOCCOCCOCCN)C(C)C)C(=O)N[C@@H](CC(C)C)C(=O)NCC(=O)N[C@H](Cc1ccc(O)cc1)C(=O)N[C@@H](CC(C)C)C(=O)N[C@@H](C)C(=O)N[C@H](C(=O)N[C@@H](CCCNC(=N)N)C(=O)N1CCC[C@H]1C(=O)N[C@H](Cc1ccccc1)C(=O)N[C@@H](CC(C)C)C(=O)N1CCC[C@H]1C(=O)N[C@@H](CCCCN)C(=O)N[C@H](CCCCN)C(=O)N[C@@H](CCCCN)C(=O)N[C@@H](CCC(N)=O)C(=O)N[C@@H](CCC(N)=O)C(=O)N[C@@H](CCCCN)C(N)=O)C(C)C [PEG-N-3D-PEP] (H-[PEG8]FLGVLALLG[dY]LAVRP[dF]LPK[dK]KQQK-NH2; C-terminus assumed),cytotoxicity,[1],~80%
same,effect on viability of normal cells,MCF-10A cells [2],much weaker effect
CC(C)C[C@H](NC(=O)[C@H](C)NC(=O)[C@H](C)NC(=O)[C@@H](NC(=O)CNC(=O)[C@H](C)NC(=O)[C@H](C)N)C(C)C)C(=O)N[C@@H](CC(C)C)C(=O)NCC(=O)N[C@@H](Cc1ccc(O)cc1)C(=O)N[C@@H](CC(C)C)C(=O)N[C@@H](C)C(=O)N[C@H](C(=O)N[C@@H](CCCNC(=N)N)C(=O)N1CCC[C@H]1C(=O)N[C@@H](Cc1ccccc1)C(=O)N[C@@H](CC(C)C)C(=O)N1CCC[C@H]1C(=O)N[C@@H](CCCCN)C(=O)N[C@@H](CCCCN)C(=O)N[C@@H](CCCCN)C(=O)N[C@@H](CCC(N)=O)C(=O)N[C@@H](CCC(N)=O)C(=O)N[C@@H](CCCCN)C(=O)O)C(C)C [PEP-F44A-L45A-L48A] (H-AAGVAALLGYLAVRPFLPKKKQQK-OH; N-terminus and C-terminus assumed),cytotoxic activity of alanine analogs,MDA-MB-231 cells [3],completely lost their cytotoxic activity
CC(C)C[C@H](NC(=O)[C@H](C)NC(=O)[C@H](CC(C)C)NC(=O)[C@@H](NC(=O)CNC(=O)[C@H](C)NC(=O)[C@H](C)N)C(C)C)C(=O)N[C@@H](CC(C)C)C(=O)NCC(=O)N[C@@H](Cc1ccc(O)cc1)C(=O)N[C@@H](CC(C)C)C(=O)N[C@@H](C)C(=O)N[C@H](C(=O)N[C@@H](CCCNC(=N)N)C(=O)N1CCC[C@H]1C(=O)N[C@@H](Cc1ccccc1)C(=O)N[C@@H](CC(C)C)C(=O)N1CCC[C@H]1C(=O)N[C@@H](CCCCN)C(=O)N[C@@H](CCCCN)C(=O)N[C@@H](CCCCN)C(=O)N[C@@H](CCC(N)=O)C(=O)N[C@@H](CCC(N)=O)C(=O)N[C@@H](CCCCN)C(=O)O)C(C)C [PEP-F44A-L45A] (H-AAGVLALLGYLAVRPFLPKKKQQK-OH; N-terminus and C-terminus assumed),cytotoxic activity of alanine analogs,"MDA-MB-231 cells [3]; MDA-MB-231, FIG. 18",completely lost their cytotoxic activity
CC(C)C[C@H](NC(=O)[C@H](C)NC(=O)[C@H](C)NC(=O)[C@H](C)NC(=O)[C@@H](NC(=O)CNC(=O)[C@H](CC(C)C)NC(=O)[C@@H](N)Cc1ccccc1)C(C)C)C(=O)NCC(=O)N[C@@H](Cc1ccc(O)cc1)C(=O)N[C@@H](CC(C)C)C(=O)N[C@@H](C)C(=O)N[C@H](C(=O)N[C@@H](CCCNC(=N)N)C(=O)N1CCC[C@H]1C(=O)N[C@@H](Cc1ccccc1)C(=O)N[C@@H](CC(C)C)C(=O)N1CCC[C@H]1C(=O)N[C@@H](CCCCN)C(=O)N[C@@H](CCCCN)C(=O)N[C@@H](CCCCN)C(=O)N[C@@H](CCC(N)=O)C(=O)N[C@@H](CCC(N)=O)C(=O)N[C@@H](CCCCN)C(=O)O)C(C)C [PEP-L48A-L50A] (H-FLGVAAALGYLAVRPFLPKKKQQK-OH; N-terminus and C-terminus assumed),cytotoxic activity of alanine analogs,MDA-MB-231 cells [3],completely lost their cytotoxic activity
"PEP-FL: Green fluorescein was conjugated to the peptide having SEQ ID NO: 1 (FLGVLALLGYLAVRPFLPKKKQQK; also: green fluorescein conjugated, site not given here)",uptake of fluorescent peptide by malignant cells,MDA-MB-231 cells [4],preferentially up-taken by the cancer MDA-MB-231 cells
same,uptake of fluorescent peptide by normal cells,MCF-10A cells [5],not by normal cells
same,effect on nuclei of malignant cells,"MDA-MB-231 cells [6]; 12 hours of incubation, FIG. 6C",completely disappeared
same,effect on mitochondria of malignant cells,"MDA-MB-231 cells [6]; time after peptide addition, FIG. 6B",disappeared within three hours
same,effect on nuclei of normal cells,MCF-10A cells [7],no serious damage
